The nature of this data set: phase 2 study: sudden withdrawal or missed doses of mitapivat, acute hemolysis. The format is in vivo, human. On the procedure:
Clinical studies have also shown that acute hemolysis with subsequent anemia can occur following abrupt interruption or discontinuation of mitapivat. […] For example, in a phase 2 study with 300 mg of mitapivat dosed twice daily, 3.8% of subjects experienced hemolysis upon sudden withdrawal of mitapivat, including 1 serious adverse event of acute hemolysis. […] Although the exact risk factors which make someone susceptible to acute hemolysis cannot be determined, it appears that the rapid loss of hemoglobin is an issue for these cases. Given the uncertainty as to who is likely to experience signs or symptoms of acute hemolysis (or subsequent anemia), it is important to develop means for mitigating such events.

Take `O=C(c1ccc(NS(=O)(=O)c2cccc3cccnc23)cc1)N1CCN(CC2CC2)CC1` [mitapivat, N-(4-(4-(cyclopropylmethyl)piperazine-1-carbonyl)phenyl)quinoline-8-sulfonamide]: under “patients who missed only a few doses later in their treatment course”, the “events indicative of acute hemolysis after missed doses” value is on record as “did not experience events indicative of acute hemolysis”. Besides, the “subjects who experienced hemolysis upon sudden withdrawal of mitapivat” value (phase 2 study, 300 mg mitapivat dosed twice daily, sudden withdrawal) stood at 3.8%. Besides, the “serious adverse event of acute hemolysis (number of events)” value (phase 2 study, 300 mg twice daily, sudden withdrawal, included in the 3.8%) is on record as 1.
